Results taken from patent US9044527B2, “Wound care products with peracid compositions” (CHD Bioscience, Inc., priority 2011, dated 2015).

What was measured:
[1] = test system: methicillin resistant staphylococcus aureus (MRSA); experiment: MRSA streaked blood agar plate treated with PPA film discs (simulated MIC test); type: cell-based; conditions: 6 mm film discs made with 100 ppm and 1000 ppm PPA compound, incubated overnight
Text: This bulk film material illustrated in the drawings can be easily fit between layers of dressing or gauze and protected from the moisture in the bandage. […] To test efficacy and stability of the incorporated PPA compound, six millimeter discs were cut out of the PPA treated matrices and placed onto a methicillin resistant staphylococcus aureus (MRSA) streaked blood agar plate. […] This method simulated the well-known minimum inhibitory concentration (MIC) test. The blood agar plates were incubated overnight at optimal temperature and then observed for microbial kill.
The control film disc was the diameter of the grown of the 1000 ppm disc. The discs were placed on the blood agar plate and were dissolved by the moisture from the agar which allowed the PPA compound to migrate out of the film. […] Thus the 1000 ppm ratio of ppm concentration to the circle of kill diameter was greater than for the 100 ppm concentration to the circle diameter in millimeters.

[2] = test system: e. coli 25922; experiment: Kirby-Bauer growth inhibition (disk diffusion) assay; type: cell-based; conditions: 10 μg gentamicin disc, 6 mm, 16-18 hours
Procedure: Kirby-Bauer growth inhibition (or disk diffusion susceptibility testing) is used to quantify the efficiency of antibiotics and/or to test the sensitivity of particular rapidly growing bacteria to an antibiotic.
A bacterial inoculum was prepared from log-phase cultures (ATCC e. coli 25922) to a standard density (approximately 1×10^8 CFU/ml, which is equivalent to a 0.5 McFarland turbidity). The inoculum was applied to a culture dish with Muller-Hinton nutrient agar.
Dissolvable thin film biocide preparations were prepared as Examples 1 or 3, but the spiked biocide was used at an original film-pour concentration of 20,000 ppm (recall that when the film-pour dries, it loses approximately 16-25× of its weight through solvent evaporation, and thus the final concentration of the biocide is much higher than the film-pour, although some is lost through evaporation as evidenced by the acetic acid smell during dry-down).
Samples of hydrogel (single FT cycle) were also used in some experiments where spiked biocide films were applied to the hydrogel surface and the bi-layer sample applied to the culture surface.
At the time of infection, test materials are applied to the surface of the agar. After a growth a 35-37° C. in air, for period of 16-18 hours, the diameter of the zone of inhibited bacteria growth can be visualized and measured with calipers. […]

[3] = test system: e. coli 25922; conditions: 10 μg gentamicin disc, 6 mm; cited from earlier work

Molecule	kill of MRSA (circle of kill diameter) [1]	control zone inhibition diameter [2]	zone inhibition diameter, published quality-control data [3]
CC(=O)C(=O)OO [PPA compound, peroxy pyruvic acid]	in proportion to the PPA concentration in the disc	–	–
gentamicin [Sensi-Disc]	–	agrees with published quality-control data	19-26 mm
